Measurements published in patent US4167580A, “Compositions and method of use to treat arthritic disease with m-fluorobenzimidoylacetonitrile” (American Cyanamid Company, priority 1978, dated 1979).

Legend:
[1] = tested on: Body Temperature of Pyretic Rats; assay: Body temperature in yeast induced pyrexia; format: in vivo, Royal Hart, Wistar strain rats; details: 250 mg./kg. by gavage 17 hours after yeast; measured 19 hours post challenge
Experimental: The effect of benzimidoylacetonitrile on body temperature in yeast induced pyrexia was determined by the following procedure. Groups of three Royal Hart, Wistar strain rats weighing 80±5 grams were injected subcutaneously in the nape of the neck with 0.6 ml. of a 40% suspension of dried brewers yeast in distilled water. […] At 19 hours post challenge the rectal temperature of each rat was measured with an electric thermometer. Each dose response experiment was replicated one or more times.

[2] = tested on: Erythema in Guinea Pigs; assay: Ultraviolet induced erythema in guinea pigs, topical application; format: in vivo, Albino guinea pigs; details: 1% in ethyl alcohol
Experimental: Albino guinea pigs were depilitated on their flanks, the evening before testing, with a standard mixture of barium sulfide and gum acacia. On the morning of the test at 0 hour they were restrained in a plastic container which allows exposure of 3 circular spots. They were then exposed to ultraviolet irradiation from a "Hanovia" Kromayer lamp, model 10, for 60 seconds. Immediately after exposure to ultraviolet light, the guinea pigs were treated by dissolving the test compound in ethyl alcohol at various concentrations and swabbing the UV exposed areas with the aid of a cottom tipped applicator stick. At one and four hours, the degree of erythema for each of the three sites was assessed according to the following scoring system: 0=no erythema, 0.5=incomplete circle or faint erythema and 1.0=complete circle of distinct erythema. Thus, the maximum score for each animal was 3.0.

[3] = tested on: Adjuvant Arthritis in Rats; assay: Adjuvant induced arthritis in rats (chronic inflammation with joint destruction); format: in vivo, Royal Hart, Wistar strain rats; details: once daily days 0-13
Text: Adjuvant induced experimental polyarthritis is a specific systemic disease of the rat which shares interesting similarities with rheumatoid arthritis. Specifically, the histology of the two diseases bears a remarkable resemblance as shown by C. M. Pearson et al., Am. J. Pathol. 42, 73 (1963). E. M. Glenn, Am. J. Vet. Res. 27 (116), 339 (1966) has classified adjuvant induced polyarthritis as a crippling and permanent deformity resulting from diffuse connective tissue involvement around certain susceptible joints in the rat. Zahiri et al., Can. Med. Ass. J. 101, 269 (1969) have shown that the fusiform swelling of the distal joints is associated with edema, congestion and synovitis including pannus formation, all of which precede the ultimate destruction of bone and cartilage. Furthermore, Zahiri et al. indicate that the cartilage destruction in the joint is due to an invasive pannus which originates in the marginal synovium and extends across the articular surface to erode it. […] See S. Wong et al., J. Pharm. & Exptl. Ther. 185, 127 (1973) and G. R. Bobalick et al., Agents & Actions 4, 364 (1974). In a similar manner, inhibition of the progress of arthritis in paws of rats treated with the compounds of this invention also lessens associated joint deterioration.
Groups of three Royal Hart, Wistar strain rats weighing 200±10 grams each were injected intradermally in the right hind paw with Freund's adjuvant (dried human tubercle bacilli in a mineral oil vehicle) at a dose of 2 mg./kg. of body weight. Test compounds were administered orally in a 1.5% staruh vehicle at various doses once daily on days 0 through 13 post challenge. Control rats were treated in a similar manner, but given only starch vehicle. On the 14th and 21st day post challenge the diameter of the injected paw (primary lesion) was measured by micrometer caliper. The volume of inflamed paws were estimated from these measurements and the results are expressed as percent inhibition of swelling as compared to controls. At the same time, the other inflamed sites, such as ears, paws and tail (secondary lesions) were observed and each rat was graded as to degree of inflammation and swelling present. The grading is based on a scale of 0 to 24, where 0 represents a complete absence of induced arthritic nodules and 24 represents the maximum degree of inflammation. The mean grade for each treated group is calculated and the effects of each compound are expressed as percent inhibition of the control grade. Table III records the results of these tests conducted with benzimidoylacetonitrile, m-fluorobenzimidoylacetonitrile and p-fluorobenzimidoylacetonitrile and known anti-inflammatory agents. The active compounds of the present invention suppress the progression of the arthritis and associated joint deterioration. Of particular interest is the low mortality observed with benzimidoylacetonitrile treated rats relative to either controls or rats treated with standard compounds.

[4] = tested on: Carrageenin Induced Edema of the Rat Paw; assay: Carrageenin induced edema of the rat paw (acute anti-inflammatory activity); format: in vivo, Royal Hart, Wistar strain rats; details: 250 mg./kg. by gavage, 5 hours after drug (4 hours after carrageenin)
Experimental: In determining the acute anti-inflammatory activity of benzimidoylacetonitrile, Royal Hart, Wistar strain rats ranging in weight from 80 to 90 grams were used. The rats were fasted overnight prior to dosing but had free access to water. The compound was administered in aqueous suspension, by gavage, in a volume of 1.7 ml. per 50 grams of rat [corresponds by hydration volume used by Winter et al., Proc. Soc. […] The phlogistic agent used was carrageenin prepared as a sterile 1% suspension in 0.9% aqueous sodium chloride for routine testing. A volume of 0.05 ml. was injected through a 26 gauge needle into the planter tissue of the right hind paw. Measurements were made 5 hours after drug administration (4 hours after carrageenin challenge). Volumes of both the normal and carrageenin inflamed feet were determined. The difference between the two measurements is considered to be the increased edema due to the carrageenin administration.

CCCCC1C(=O)N(c2ccccc2)N(c2ccccc2)C1=O [Phenylbutazone]
Decrease In Body Temp. [1]: 1.5 °C
Erythema Score (Avg.) 1 Hr. ([2]; 1 hour, maximum score 3.0, ethyl alcohol control 2.5): 0.5
Erythema Score (Avg.) 4 Hr. ([2]; 4 hours, maximum score 3.0, ethyl alcohol control 3.0): 2.4
% Inhibition of Control Grade (secondary lesion), Day 14 ([3]; 18.8 mg./kg. oral): 4%
% Inhibition of Control Grade (secondary lesion), Day 21 ([3]; 18.8 mg./kg. oral): 8%
% Inhibition of Swelling (primary lesion), Day 14 ([3]; 18.8 mg./kg. oral): 31%
% Inhibition of Swelling (primary lesion), Day 21 ([3]; 18.8 mg./kg. oral): 7%
Dead/Treated At 21 Days ([3]; 18.8 mg./kg. oral): 2/21
Mean Weight Gain, Day 14 ([3]; 18.8 mg./kg. oral): 50 grams
Mean Weight Gain, Day 21 ([3]; 18.8 mg./kg. oral): 45 grams
% Inhibition of Control Grade (secondary lesion), Day 14 ([3]; 37.5 mg./kg. oral): 18%
% Inhibition of Control Grade (secondary lesion), Day 21 ([3]; 37.5 mg./kg. oral): 13%
% Inhibition of Swelling (primary lesion), Day 14 ([3]; 37.5 mg./kg. oral): 56%
% Inhibition of Swelling (primary lesion), Day 21 ([3]; 37.5 mg./kg. oral): 14%
Dead/Treated At 21 Days ([3]; 37.5 mg./kg. oral): 5/39
Mean Weight Gain, Day 14 ([3]; 37.5 mg./kg. oral): 53 grams
Mean Weight Gain, Day 21 ([3]; 37.5 mg./kg. oral): 53 grams
% Inhibition of Control Grade (secondary lesion), Day 14 ([3]; 75 mg./kg. oral): 27%
% Inhibition of Control Grade (secondary lesion), Day 21 ([3]; 75 mg./kg. oral): 15%
% Inhibition of Swelling (primary lesion), Day 14 ([3]; 75 mg./kg. oral): 62%
% Inhibition of Swelling (primary lesion), Day 21 ([3]; 75 mg./kg. oral): 28%
Dead/Treated At 21 Days ([3]; 75 mg./kg. oral): 2/39
Mean Weight Gain, Day 14 ([3]; 75 mg./kg. oral): 51 grams
Mean Weight Gain, Day 21 ([3]; 75 mg./kg. oral): 50 grams
% Inhibition of Control Grade (secondary lesion), Day 14 ([3]; 150 mg./kg. oral): 54%
% Inhibition of Control Grade (secondary lesion), Day 21 ([3]; 150 mg./kg. oral): 31%
% Inhibition of Swelling (primary lesion), Day 14 ([3]; 150 mg./kg. oral): 75%
% Inhibition of Swelling (primary lesion), Day 21 ([3]; 150 mg./kg. oral): 44%
Dead/Treated At 21 Days ([3]; 150 mg./kg. oral): 2/27
Mean Weight Gain, Day 14 ([3]; 150 mg./kg. oral): 40 grams
Mean Weight Gain, Day 21 ([3]; 150 mg./kg. oral): 50 grams
C/T Edema Ratio (edema of control animals/edema of treated animals) [4]: 2.3

N#CCC(=N)c1cccc(F)c1 [m-Fluorobenzimidoylacetonitrile, m-fluorobenzimidoylacetonitrile]
% Inhibition of Swelling (primary lesion), Day 14 ([3]; 50 mg./kg. oral): 40%
% Inhibition of Swelling (primary lesion), Day 21 ([3]; 50 mg./kg. oral): 7%
Dead/Treated At 21 Days ([3]; 50 mg./kg. oral): 1/18
Mean Weight Gain, Day 14 ([3]; 50 mg./kg. oral): 64 grams
Mean Weight Gain, Day 21 ([3]; 50 mg./kg. oral): 60 grams

N#CCC(=N)c1ccc(F)cc1 [p-Fluorobenzimidoylacetonitrile, p-fluorobenzimidoylacetonitrile]
% Inhibition of Control Grade (secondary lesion), Day 14 ([3]; 25 mg./kg. oral): 14%
% Inhibition of Control Grade (secondary lesion), Day 21 ([3]; 25 mg./kg. oral): 9%
% Inhibition of Swelling (primary lesion), Day 14 ([3]; 25 mg./kg. oral): 26%
% Inhibition of Swelling (primary lesion), Day 21 ([3]; 25 mg./kg. oral): 14%
Dead/Treated At 21 Days ([3]; 25 mg./kg. oral): 2/18
Mean Weight Gain, Day 14 ([3]; 25 mg./kg. oral): 53 grams
Mean Weight Gain, Day 21 ([3]; 25 mg./kg. oral): 50 grams
% Inhibition of Control Grade (secondary lesion), Day 14 ([3]; 50 mg./kg. oral): 27%
% Inhibition of Control Grade (secondary lesion), Day 21 ([3]; 50 mg./kg. oral): 8%
% Inhibition of Swelling (primary lesion), Day 14 ([3]; 50 mg./kg. oral): 43%
% Inhibition of Swelling (primary lesion), Day 21 ([3]; 50 mg./kg. oral): 25%
Dead/Treated At 21 Days ([3]; 50 mg./kg. oral): 4/36
Mean Weight Gain, Day 14 ([3]; 50 mg./kg. oral): 66 grams
Mean Weight Gain, Day 21 ([3]; 50 mg./kg. oral): 57 grams
% Inhibition of Control Grade (secondary lesion), Day 14 ([3]; 100 mg./kg. oral): 49%
% Inhibition of Control Grade (secondary lesion), Day 21 ([3]; 100 mg./kg. oral): 22%
% Inhibition of Swelling (primary lesion), Day 14 ([3]; 100 mg./kg. oral): 53%
% Inhibition of Swelling (primary lesion), Day 21 ([3]; 100 mg./kg. oral): 29%
Dead/Treated At 21 Days ([3]; 100 mg./kg. oral): 1/18
Mean Weight Gain, Day 14 ([3]; 100 mg./kg. oral): 78 grams
Mean Weight Gain, Day 21 ([3]; 100 mg./kg. oral): 67 grams
